Molecules are shown by their SMILES.

In one assay the test system is mitochondrial respiration. Put plainly: Inhibition of mitochondrial respiration (rate of reduction of cytochrome c in isolated mitochondria), house fly. Type of assay: biochemical, Musca domestica. To be noted: DMSO control. From the text:
It is also possible similarly to isolate mitochondria from other organisms, e.g. from the phytopathogenic fungus Drechslera sorokiniana (synonym: Helminthosporium sativum), from the dermatophyte Trichophyton mentagrophytes, which is a human pathogen, and, for example, from the house fly (Musca domestica) as insect or from the spider mite Tetranychus urticae.
(§1) Used as control is a mixture with the equivalent amount of pure DMSO. The inhibition at the concentration of agent in each case is then calculated as follows [formula] where ΔE is the change in extinction, at is the change in time, [formula] is the reaction rate for the control and [formula] is the reaction rate for the sample x.
(§2) The inhibition was determined in each case at a test substance concentration of 1.8/10^-5mol/l .
Regarding `COC(=O)/C=C(/OC)c1ccccc1OCc1csc(-c2ccc(F)cc2)n1` [Compound 1.71, methyl (E)-β-methoxy-2-[2-(4-fluorophenyl)-4-thiazolylmethyloxy]cinnamate], the “% inhibition of respiration at 1.8 × 10^-5 mol/l test substance, Musca domestica” value (shortened to “% inhibition of respiration … Musca domestica”) stood at 18%. Same read-out and setting: for `COC(=O)/C=C(/OC)c1ccccc1/C=C/c1ccccc1` [Compound 1a.233] the value was 89%; for `COC(=O)/C=C(/OC)c1ccccc1/C=C/c1cccc([N+](=O)[O-])c1` [Compound 1a.240], 84%. With `COC(=O)/C=C(/OC)c1ccccc1/C=C\c1cccc([N+](=O)[O-])c1` [Compound 1a.241], the “% inhibition of respiration … Musca domestica” value was found to be 9%. On to `COC(=O)/C=C(/OC)c1ccccc1/C=C\c1ccccc1C(F)(F)F` [Compound 1a.244], for which the “% inhibition of respiration … Musca domestica” value worked out at 50%. Turning to `COC(=O)/C=C(/OC)c1ccccc1/C=C/c1cccc(Oc2ccccc2)c1` [Compound 1a.271], the “% inhibition of respiration … Musca domestica” value is given as 94%. Still for that read-out and setting: next, `COC(=O)/C=C(/OC)c1ccccc1/C=C\c1cccc(Oc2ccccc2)c1` [Compound 1a.272]: 78%; `COC(=O)/C=C(/OC)c1ccccc1/C=C/c1cc[nH]c1` [Compound 1a.288]: 22%.

Another assay deals with mitochondrial respiration. Put plainly: Inhibition of mitochondrial respiration (rate of reduction of cytochrome c in isolated mitochondria), yeast. In kind it is biochemical, Saccharomyces cerevisiae. Conditions: DMSO control.
Excerpt: In order to determine the effect of the compounds according to the invention on mitochondrial respiration it is first necessary to isolate the mitochondria from the organisms being investigated. For this, in the case of the yeast Saccharomyces cerevisiae, the cells in a 30 to 40% strength suspension of the yeast in an aqueous solution of 0.6M mannitol+0.01M tris[hydroxymethyl]-aminomethane+0.002M disodium ethylenediaminetetraacetate (pH 6.8) are disrupted in a glass bead mill, and the extract is fractionated by differential centrifugation at 1000× g and 12000× g. The mitochondria are in the pellet from the 12000× g centrifugation.
as §1, §2
As for `COC(=O)/C=C(/OC)c1ccccc1C` [Compound 1.1, methyl (E)-β-methoxy-2-methylcinnamate], the “% inhibition of respiration at 1.8 × 10^-5 mol/l test substance, Saccharomyces cerevisiae” value (“% inhibition … Saccharomyces cerevisiae” for short) is listed as 23%.

`COC(=O)/C=C(/OC)c1ccccc1OCc1csc(-c2ccc(F)cc2)n1` [Compound 1.71, methyl (E)-β-methoxy-2-[2-(4-fluorophenyl)-4-thiazolylmethyloxy]cinnamate]: the “% inhibition … Saccharomyces cerevisiae” value is on record as 30%.

On to `COC(=O)/C=C(/OC)c1ccccc1Oc1cccc(C)c1` [Compound 1.90, methyl (E)-β-methoxy-2-(3-methylphenoxy)cinnamate], for which the “% inhibition … Saccharomyces cerevisiae” value came out at 85%. Same read-out and setting: next, `COC(=O)/C=C(\OC)c1ccccc1Oc1cccc(C)c1` [Compound 1.91, methyl (Z)-β-methoxy-2-(3-methylphenoxy)cinnamate]: 22%; `COC(=O)/C=C(\C)c1ccccc1CBr` [Compound 1.167, methyl (E)-β-methyl-2-bromomethylcinnamate]: 99%; `CCCCOc1ccc(OCc2ccccc2/C(=C\C(=O)OC)OC)cc1` [Compound 1a.37]: 98%.

As for `CCOC(=O)/C=C(/OC)c1ccccc1COc1ccc(/C(C)=N/OC)cc1C` [Compound 1a.74, ethyl (E)-β-methoxy-2-[2-methyl-4-(1-methoximinoethyl)phenoxymethyl]cinnamate], the “% inhibition … Saccharomyces cerevisiae” value is recorded as 99%. On to `CCCOC(=O)/C=C(/OC)c1ccccc1COc1ccc(C(C)=NOC)cc1C` [Compound 1a.75], for which the “% inhibition … Saccharomyces cerevisiae” value is on record as 70%. For the compound `CCCCOC(=O)/C=C(/OC)c1ccccc1COc1ccc(C(C)=NOC)cc1C` [Compound 1a.77], the “% inhibition … Saccharomyces cerevisiae” value is reported as 63%. Same read-out and setting: next, `CO/N=C(\C)c1ccc(OCc2ccccc2/C(=C\C(=O)ON=C(C)C)OC)c(C)c1` [Compound 1a.82]: 94%; `C=CCOC(=O)/C=C(/OC)c1ccccc1COc1ccc(C(C)=NOC)cc1C` [Compound 1a.83]: 78%. Same read-out and setting: next, `C#CCOC(=O)/C=C(/OC)c1ccccc1COc1ccc(C(C)=NOC)cc1C` [Compound 1a.84]: 98%; `CON=C(C)c1ccc(OCc2ccccc2/C(=C\C(=O)SC)OC)c(C)c1` [Compound 1a.86]: 97%. Turning to `CO/N=C(\C)c1ccc(OCc2ccccc2/C(=C\C(N)=O)OC)c(C)c1` [Compound 1a.88, (E)-β-methoxy-2-[2-methyl-4-(1-methoximinoethyl)phenoxymethyl]cinnamide], the “% inhibition … Saccharomyces cerevisiae” value turned out to be 99%.

Turning to `CNC(=O)/C=C(/OC)c1ccccc1COc1ccc(C(C)=NOC)cc1C` [Compound 1a.89], the “% inhibition … Saccharomyces cerevisiae” value came to 99%. On the same count and under the same terms, for `CCNC(=O)/C=C(/OC)c1ccccc1COc1ccc(C(C)=NOC)cc1C` [Compound 1a.91] the value was 99%; for `CON=C(C)c1ccc(OCc2ccccc2/C(=C\C(=O)N(C)C)OC)c(C)c1` [Compound 1a.98], 100%; for `CCCCN(C)C(=O)/C=C(/OC)c1ccccc1COc1ccc(C(C)=NOC)cc1C` [Compound 1a.101], 69%. On the same count and under the same terms, next, `COC(=O)/C=C(/C)c1ccccc1COc1ccccc1C` [Compound 1a.108, methyl (Z)-β-methyl-2-(2-methylphenoxymethyl)cinnamate]: 98%. As for `COC(=O)/C=C(\C)c1ccccc1COc1ccccc1C` [Compound 1a.109, methyl (E)-β-methyl-2-(2-methylphenoxymethyl)cinnamate], the “% inhibition … Saccharomyces cerevisiae” value turned out to be 31%.

`CO/N=C(\C)c1ccc(OCc2ccccc2/C(C)=C\C(=O)OC)c(C)c1` [Compound 1a.112, methyl (Z)-β-methyl-2-[2-methyl-4-(1-(E)-methoximinoethyl)phenoxy]methylcinnamate]: the “% inhibition … Saccharomyces cerevisiae” value amounted to 99%. Turning to `CO/N=C(\C)c1ccc(OCc2ccccc2/C(C)=C/C(=O)OC)c(C)c1` [Compound 1a.113, methyl (E)-β-methyl-2-[2-methyl-4-(1-(E)-methoximinoethyl)phenoxy]methylcinnamate], the “% inhibition … Saccharomyces cerevisiae” value is recorded as 80%. The same measure, in the same setting: for `COC(=O)/C=C(/OC)c1ccccc1CSc1nc(-c2ccccc2)cs1` [Compound 1a.162] the value was 76%.

On to `COC(=O)/C=C(/OC)c1ccccc1/C=C/c1ccccc1` [Compound 1a.233], for which the “% inhibition … Saccharomyces cerevisiae” value came out at 88%. For the compound `COC(=O)/C=C(/OC)c1ccccc1/C=C/c1cccc([N+](=O)[O-])c1` [Compound 1a.240], the “% inhibition … Saccharomyces cerevisiae” value stood at 94%. The same measure, in the same setting: for `COC(=O)/C=C(/OC)c1ccccc1/C=C\c1cccc([N+](=O)[O-])c1` [Compound 1a.241] the value was 20%; for `COC(=O)/C=C(/OC)c1ccccc1/C=C\c1ccccc1C(F)(F)F` [Compound 1a.244], 65%; for `COC(=O)/C=C(/OC)c1ccccc1/C=C/c1ccccc1C` [Compound 1a.247], 99%. Take `COC(=O)/C=C(/OC)c1ccccc1/C=C/c1ccc(C)cc1` [Compound 1a.250]: the “% inhibition … Saccharomyces cerevisiae” value is given as 99%. The same measure, in the same setting: for `COC(=O)/C=C(/OC)c1ccccc1/C=C\c1ccc(C)cc1` [Compound 1a.251] the value was 54%; for `COC(=O)/C=C(/OC)c1ccccc1/C=C/c1ccc(OCc2ccccc2)cc1` [Compound 1a.264, methyl 2-[2-(4-benzyloxyphenyl)-(E)-ethenyl]-(E)-β-methoxycinnamate], 98%.

For `COC(=O)/C=C(/OC)c1ccccc1/C=C/c1cccc(Oc2ccccc2)c1` [Compound 1a.271], the “% inhibition … Saccharomyces cerevisiae” value is reported as 92%. Take `COC(=O)/C=C(/OC)c1ccccc1/C=C\c1cccc(Oc2ccccc2)c1` [Compound 1a.272]: the “% inhibition … Saccharomyces cerevisiae” value is listed as 51%.

With `COC(=O)/C=C(/OC)c1ccccc1/C=C/c1cc[nH]c1` [Compound 1a.288], the “% inhibition … Saccharomyces cerevisiae” value came out at 50%. Still for that read-out and setting: for `COC(=O)/C=C(/OC)c1ccccc1/C=C/c1nnc(-c2ccccc2)s1` [Compound 1a.308] the value was 99%; for `COC(=O)/C=C(/OC)c1ccccc1/C=C/c1cnn(-c2cccc(Cl)c2)c1` [Compound 1a.316], 98%.

For the compound `COC(=O)/C=C(/OC)c1ccccc1/C=C\c1cnn(-c2cccc(Cl)c2)c1` [Compound 1a.317], the “% inhibition … Saccharomyces cerevisiae” value was 29%. In the case of `COC(=O)/C=C(/OC)c1ccccc1/C=C\c1cnn(-c2ccc(OC)cc2)c1` [Compound 1a.319], the “% inhibition … Saccharomyces cerevisiae” value worked out at 11%. Still for that read-out and setting: next, `COC(=O)/C=C(/OC)c1ccccc1/C=C/c1cnn(-c2ccc(Cl)cc2)c1` [Compound 1a.320]: 98%; `COC(=O)/C=C(/OC)c1ccccc1/C=C/c1noc(-c2ccc(Cl)cc2)c1C` [Compound 1a.322]: 99%. In the case of `COC(=O)/C=C(/OC)c1ccccc1/C=C/c1cc(CC(C)C)no1` [Compound 1a.324], the “% inhibition … Saccharomyces cerevisiae” value is reported as 99%.

For `COC(=O)/C=C(/OC)c1ccccc1/C=C/C1CCCOC1` (centres unmarked) [Compound 1a.329], the “% inhibition … Saccharomyces cerevisiae” value stood at 9%. Still for that read-out and setting: for `COC(=O)/C=C(/OC)c1ccccc1/C=C/C1CCOC(c2ccccc2)C1` (centres unmarked) [Compound 1a.331] the value was 79%.

For the compound `COC(=O)/C=C(/OC)c1ccccc1/C=C/C1CCOC(C2CCCOC2)C1` (centres unmarked) [Compound 1a.333], the “% inhibition … Saccharomyces cerevisiae” value was 20%. Same read-out and setting: for `COC(=O)/C=C(/OC)c1ccccc1CON=C(c1ccccc1)c1ccc(Cl)cc1` [Compound 1a.358] the value was 99%.

These data come from patent US5573999A, “β-substituted cinnamic acid derivative” (BASF Aktiengesellschaft, priority 1991, dated 1996).
